From patent US20080280759A1, “6-(2-Fluoro-4-Alkoxyphenyl) Triazolopyrimidines, Their Preparation, Their Use For Controlling Harmful Fungi, and Compositions Comprising Them” (priority 2003, published 2008) come the findings set out here.

The test relates to Botrytis cinerea. As to the kind of experiment: Activity against gray mold on bell pepper leaves caused by Botrytis cinerea, protective application. To be noted: 250 ppm, sprayed the day before inoculation, assessed visually after 5 days, untreated plants 80% infected. The format is in vivo. As to the method: The active compounds were formulated separately as a stock solution with 0.25% by weight in acetone or DMSO. 1% by weight of the emulsifier Wettol EM 31 (wetting agent having emulsifying and dispersing action based on ethoxylated alkylphenols) was added to this solution. The stock solutions of the active compounds were diluted with water to the stated concentration. For examples 1 and 2, the active compounds were prepared as a stock solution with 25 mg of active compound which was made up to 10 ml using a mixture of acetone and/or DMSO and the emulsifier Uniperol® EL (wetting agent having emulsifying and dispersing action based on the ethoxylated alkylphenols) in a volume ratio of solvent/emulsifier of 99 to 1. The mixture was then made up with water to 100 ml. This stock solution was diluted with the solvent/emulsifier/water mixture described to the concentration of active compounds stated below. Bell pepper seedlings of the cultivar “Neusiedler Ideal Elite” were, after 2 to 3 leaves were well developed, sprayed to runoff point with an aqueous suspension having the concentration of active compounds stated below. The next day, the treated plants were inoculated with a spore suspension of Botrytis cinerea which contained 1.7×10^6 spores/ml in a 2% aqueous biomalt solution. The test plants were then placed in a dark climatized chamber at 22 to 24° C. and high atmospheric humidity. After 5 days, the extent of the fungal infection on the leaves could be determined visually in %.

Regarding “5-methoxy-6-(2,6-difluoro-4-methoxyphenyl)-7-(4-methyl-piperidinyl)-1,2,4-triazolo[1,5a]pyrimidine [Compound I-3]”, the “fungal infection on the leaves” value was “no infection”.
Then `COc1cc(F)c(-c2c(C#N)nc3ncnn3c2N2CCC(C)CC2)c(F)c1` [Compound I-1, 5-cyano-6-(2,6-difluoro-4-methoxyphenyl)-7-(4-methyl-piperidinyl)-1,2,4-triazolo[1,5a]pyrimidine], with “no infection”; and `COc1cc(F)c(-c2c(C)nc3ncnn3c2N2CCC(C)CC2)c(F)c1` [Compound I-2, 5-methyl-6-(2,6-difluoro-4-methoxyphenyl)-7-(4-methyl-piperidinyl)-1,2,4-triazolo[1,5a]pyrimidine], with “no infection”.
